Patent US6071884A, “Pharmaceutical compositions and therapeutic methods” (Kirin Beer Kabushiki Kaisha, priority 1992, dated 2000)

Assays:
[1] = system: mononuclear cell fraction of human umbilical cord blood; assay: Proliferation-stimulating effect on mononuclear cell fraction of human umbilical cord blood (3H-TdR uptake); format: cell-based; settings: 96 h, percentage of control, 4 days
Outline: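 Umbilical cord blood MNF (Lymphoprep) cultured at 1×10^6 cells/ml in RPMI 1640 with 10% autologous plasma with sample for 4 days at 37° C, 5% CO2. 0.5 μCi/well 3H-TdR then added for 8 h, and nuclear uptake measured by liquid scintillation counting.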

blood platelets = assay: Thrombocytopenia-inhibiting effect in X-ray-irradiated mice; format: in vivo, mouse (BDF1); settings: 10 days after 5 Gy X-ray; 0.1 mg/kg i.v. within 2 h; mean ± SD; vehicle per series 10.3, 6.8, 6.7; non-treatment 68.2, 96.9, 73.0
Outline: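 Female BDF1 mice, 6 weeks old, six per group, given 5 Gy whole-body X-ray, then 0.1 mg/kg i.v. via tail vein within 2 hours. Platelets counted by hemocytometer in fundus-vein blood 10 days later; untreated and vehicle groups run alongside.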

CCCCCCCCCCCCCCCCCCCCCCCCCC(=O)N[C@@H](CO[C@H]1O[C@H](CO)[C@H](O)[C@H](O)[C@H]1O)[C@H](O)[C@H](O)CCCCCCCCCCCCCC [Compound 33, (2S,3S,4R)-1-(α-D-galactopyranosyloxy)-2-hexacosanoylamino-3,4-octadecanediol]
activity at 0.1 µg/mL ([1]; 10^-1 μg/ml): 409% | activity at 0.01 µg/mL ([1]; 10^-2 μg/ml): 256% | activity at 0.001 µg/mL ([1]; 10^-3 μg/ml): 228% | Number of Blood Platelets (blood platelets): 23.9 ± 6.5 × 10^4 /μl
